From US20230100838A1 (Revolution Medicines, Inc., priority 2019, published 2023)

How the values were obtained:
Type in all cases: binding
[1] = biological target: T1, GDP-loaded K-Ras (1-169) G12D, C51S, C80L, C118S (Homo sapiens, UniProt P01116, C118S/C51S/C80L/G12D); experiment: K-Ras G12D(GDP) cross-linking assay (conjugate formation, TOF mass spectrometry); set-up: key: 0: No observed x-linking; +: 0 < x ≤ 20; ++: 20 < x ≤ 40; +++: 40 < x ≤ 100; details: percent covalently modified K-Ras by MS, room temperature, typical compound conc. 2, 10, 25 μM, endpoints 1 and 24 h
T1 construct: GDP-loaded K-Ras (1-169) G12D, C51S, C80L, C118S
Procedure, shortened: (§1)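 5 μM protein (final, from 50 μM) in HEPES/NaCl/MgCl2 buffer pH 7.4 with compound typically at 2, 10 and 25 μM, room temperature, 1 and 24 h endpoints; formic acid quench. Intact-protein LC–TOF MS; percent modification is covalent adduct peak height over total K-Ras peak height.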

[2] = biological target: T2, GDP-loaded K-Ras (1-169) C51S, C80L, C118S (Homo sapiens, UniProt P01116, C118S/C51S/C80L); experiment: K-Ras WT (GDP) cross-linking assay (conjugate formation, TOF mass spectrometry); set-up: key: 0: No observed x-linking; +: 0 < x ≤ 20; ++: 20 < x ≤ 40; +++: 40 < x ≤ 100; details: percent covalently modified K-Ras by MS, room temperature, typical compound conc. 2, 10, 25 μM, endpoints 1 and 24 h
T2 construct: GDP-loaded K-Ras (1-169) C51S, C80L, C118S
Procedure, shortened: as §1

[3] = biological target: K-Ras G12S (Homo sapiens, UniProt P01116, G12S); experiment: K-Ras G12S cross-linking assay (comparable procedure, conjugate formation, TOF mass spectrometry); set-up: key: 0: No observed x-linking
Procedure, shortened: as §1

[4] = Table 4, percent covalently modified K-Ras by MS

| SMILES | G12D x-linking (%) ([1]; Table 4) | WT x-linking (%) ([2]; Table 4) | G12S x-linking (%) [3, 4] | G12D x-linking (%) ([1]; Table 5) | WT x-linking (%) ([2]; Table 5) | G12S x-linking (%) ([3]; Table 5, percent covalently modified K-Ras by MS) |
| --- | --- | --- | --- | --- | --- | --- |
| Cc1cccc2cccc(N3CCc4c(nc(OC[C@@H]5CCCN5C)nc4N4CCN(C(=O)NCCCl)[C@@H](CC#N)C4)C3)c12 [Example 34, (S)—N-(2-chloroethyl)-2-(cyanomethyl)-4-(7-(8-methylnaphthalen-1-yl)-2-(((S)-1-methylpyrrolidin-2-yl)methoxy)-5,6,7,8-tetrahydropyrido[3,4-d]pyrimidin-4-yl)piperazine-1-carboxamide] | + (0 < x ≤ 20) | + (0 < x ≤ 20) | + (0 < x ≤ 10) |  |  |  |
| Cc1ccnc(C(C)C)c1-n1c(=O)nc(N2CCN(C(=O)[C@@H]3CN3)C[C@@H]2C)c2cc(F)c(-c3c(O)cccc3F)nc21 [Example 66, 4-((S)-4-((S)-aziridine-2-carbonyl)-2-methylpiperazin-1-yl)-6-fluoro-7-(2-fluoro-6-hydroxyphenyl)-1-(2-isopropyl-4-methylpyridin-3-yl)pyrido[2,3-d]pyrimidin-2(1H)-one] |  |  |  | + (0 < x ≤ 20) | + (0 < x ≤ 20) | + (0 < x ≤ 10) |
| CC(=O)N1CC1C(=O)N1CCN(c2nc(OC[C@@H]3CCCN3C)nc3c2CCN(c2cccc4cccc(C)c24)C3)CC1 (stereo partly drawn) [Example 47, 1-(2-(4-(7-(8-methylnaphthalen-1-yl)-2-(((S)-1-methylpyrrolidin-2-yl)methoxy)-5,6,7,8-tetrahydropyrido[3,4-d]pyrimidin-4-yl)piperazine-1-carbonyl)aziridin-1-yl)ethan-1-one] | + (0 < x ≤ 20) | + (0 < x ≤ 20) | + (0 < x ≤ 10) |  |  |  |
| CCCN=C=NCCN(C)c1nc(OC[C@@H]2CCCN2C)nc2c1CCN(c1cccc3cccc(C)c13)C2 [Example 26, N-methyl-7-(8-methylnaphthalen-1-yl)-2-(((S)-1-methylpyrrolidin-2-yl)methoxy)-N-(2-(((propylimino)methylene)amino)ethyl)-5,6,7,8-tetrahydropyrido[3,4-d]pyrimidin-4-amine] | +++ (40 < x ≤ 100) | ++ (20 < x ≤ 100) | ++ (10 < x ≤ 100) |  |  |  |
| COc1ccc(CN=C=NCCN(C)c2nc(OC[C@@H]3CCCN3C)nc3c2CCN(c2cccc4cccc(C)c24)C3)cc1 [Example 29, N-(2-((((4-methoxybenzyl)imino)methylene)amino)ethyl)-N-methyl-7-(8-methylnaphthalen-1-yl)-2-(((S)-1-methylpyrrolidin-2-yl)methoxy)-5,6,7,8-tetrahydropyrido[3,4-d]pyrimidin-4-amine] | +++ (40 < x ≤ 100) | ++ (20 < x ≤ 100) | ++ (10 < x ≤ 100) |  |  |  |
| CC(=O)N1CC1C(=O)N(C)C1CCN(c2nc(OC[C@@H]3CCCN3C)nc3c2CCN(c2cccc4cccc(C)c24)C3)CC1 (stereo partly drawn) [Example 43, 1-acetyl-N-methyl-N-(1-(7-(8-methylnaphthalen-1-yl)-2-(((S)-1-methylpyrrolidin-2-yl)methoxy)-5,6,7,8-tetrahydropyrido[3,4-d]pyrimidin-4-yl)piperidin-4-yl)aziridine-2-carboxamide] | + (0 < x ≤ 20) | + (0 < x ≤ 20) | + (0 < x ≤ 10) |  |  |  |
| CCCN=C=NC1CCN(c2nc(=O)n(-c3c(C)ccnc3C(C)C)c3nc(-c4ccccc4F)c(F)cc23)CC1 [Example 53, 6-fluoro-7-(2-fluorophenyl)-1-(2-isopropyl-4-methylpyridin-3-yl)-4-(4-(((propylimino)methylene)amino)piperidin-1-yl)pyrido[2,3-d]pyrimidin-2(1H)-one] | + (0 < x ≤ 20) | + (0 < x ≤ 20) | + (0 < x ≤ 10) |  |  |  |
| Cc1cccc2cccc(N3CCc4c(nc(OC[C@@H]5CCCN5C)nc4N(C)CCN=C=NCc4ccc(Cl)cc4)C3)c12 [Example 28, N-(2-((((4-chlorobenzyl)imino)methylene)amino)ethyl)-N-methyl-7-(8-methylnaphthalen-1-yl)-2-(((S)-1-methylpyrrolidin-2-yl)methoxy)-5,6,7,8-tetrahydropyrido[3,4-d]pyrimidin-4-amine] | ++ (20 < x ≤ 40) | + (0 < x ≤ 20) | ++ (10 < x ≤ 100) |  |  |  |
| COCCCN=C=NC1CCN(c2nc(OC[C@@H]3CCCN3C)nc3c2CCN(c2cccc4cccc(C)c24)C3)CC1 [Example 25, N-(3-methoxypropyl)-N-(1-(7-(8-methylnaphthalen-1-yl)-2-(((S)-1-methylpyrrolidin-2-yl)methoxy)-5,6,7,8-tetrahydropyrido[3,4-d]pyrimidin-4-yl)piperidin-4-yl)methanediimine] | +++ (40 < x ≤ 100) | ++ (20 < x ≤ 100) | ++ (10 < x ≤ 100) |  |  |  |
| Fc1ccccc1-c1c(Cl)cc2c(NCCNC3=NCCO3)ncnc2c1F [Example 15, N-(6-chloro-8-fluoro-7-(2-fluorophenyl)quinazolin-4-yl)-N^2-(4,5-dihydrooxazol-2-yl)ethane-1,2-diamine] | + (0 < x ≤ 20) | + (0 < x ≤ 20) | + (0 < x ≤ 10) |  |  |  |
| CCCN=C=NC1CCN(c2nc(OC[C@@H]3CCCN3C)nc3c2CCN(c2cccc4cccc(C)c24)C3)CC1 [Example 22, N-(1-(7-(8-methylnaphthalen-1-yl)-2-(((S)-1-methylpyrrolidin-2-yl)methoxy)-5,6,7,8-tetrahydropyrido[3,4-d]pyrimidin-4-yl)piperidin-4-yl)-N-propylmethanediimine] | +++ (40 < x ≤ 100) | ++ (20 < x ≤ 100) | ++ (10 < x ≤ 100) |  |  |  |
| O=C(NCCCl)NC1CCN(c2ncnc3c(F)c(-c4ccccc4F)c(Cl)cc23)CC1 [Example 10, 1-(1-(6-chloro-8-fluoro-7-(2-fluorophenyl)quinazolin-4-yl)piperidin-4-yl)-3-(2-chloroethyl)urea] | + (0 < x ≤ 20) | + (0 < x ≤ 20) | + (0 < x ≤ 10) |  |  |  |
| Cc1cccc2cccc(N3CCc4c(nc(OC[C@@H]5CCCN5C)nc4N4CCC(N(C)C(=O)C5CN5S(C)(=O)=O)CC4)C3)c12 (stereo partly drawn) [Example 44, N-methyl-(1-(7-(8-methylnaphthalen-1-yl)-2-(((S)-1-methylpyrrolidin-2-yl)methoxy)-5,6,7,8-tetrahydropyrido[3,4-d]pyrimidin-4-yl)piperidin-4-yl)-1-(methylsulfonyl)aziridine-2-carboxamide] | + (0 < x ≤ 20) | + (0 < x ≤ 20) | + (0 < x ≤ 10) |  |  |  |
| Fc1ccccc1-c1c(Cl)cc2c(N3CCC(N=C=Nc4ccc(Cl)cc4)CC3)ncnc2c1F [Example 6, N-(1-(6-chloro-8-fluoro-7-(2-fluorophenyl)quinazolin-4-yl)piperidin-4-yl)-N-(4-chiorophenyl)methanediimine] | 0 | 0 | 0 |  |  |  |
| COc1ccc(N=C=NC2CCN(c3ncnc4c(F)c(-c5ccccc5F)c(Cl)cc34)CC2)cc1 [Example 5, N-(1-(6-chloro-8-fluoro-7-(2-fluorophenyl)quinazolin-4-yl)piperidin-4-yl)-N-(4-methoxyphenyl)methanediimine] | 0 | 0 | 0 |  |  |  |
